From patent US6864256B2, “Methods for the control of insect pests” (Tria Specialty Products, LLC, priority 2002, dated 2005)
Several values for one entry are separate records, joined by “and”; a condition that tells them apart may be missing. Identical values can stand only once. Like-named read-outs stand apart in the source and are kept apart here. Marks after values point to notes of the source that are not given here.

How the values were obtained:
[1] = test system: dung-breeding flies; details: cattle, cited from earlier work
[2] = test system: Musca domestica (Hilmer Strain) eggs; assay: House fly bioassay: larval hatch from 50 eggs; type: in vivo; details: for Larval Hatch/50 Eggs, Rep 1-4: scored after 2 days
Procedure: (§1) Cyromazine (2-cycloproplyamino-4,6-diamino-s-triazine) was obtained as a purified chemical composition at greater than 98% cyromazine (technical cyromazine). 600 mg of cyromazine was orally administered to each horse daily by top-dressing horse feed, for a continuous daily administration during fly season. In this example, horses residing in North Carolina, U.S. were treated during the local fly season, lasting approximately March through October of the calendar year.
(§2) In one study, cyromazine administration was stopped, and 5 manure samples were obtained from the same horse at 24, 48, 72, 96 and 120 hours post-dosing to monitor the duration of cyromazine at an insecticidal amount in the feces. In another study, single manure samples were collected from each individual horse (n=4) <24 hours after dosing with cyromazine, i.e., before another daily dose was given. Untreated control horse manure was collected from a nearby horse ranch. Samples were shipped and kept in the refrigerator until the house fly bioassay was set-up.
Approximately fifty (50) Musca domestica (Hilmer Strain) eggs <24 hours old were counted and placed on filter paper discs in each of four replicates (rep) per cyromazine treatment group or control. Each replicate was covered with a paper towel and placed in the environmental chamber at 80° F. (27° C.), 80% relative humidity and a 14:10 (light:dark) photoperiod. The eggs were scored for larval hatch after two days and a layer of wood shavings added as a moisture barrier and a dry substrate for pupation.
(§3) The percent larval hatch, adult fly emergence and corrected percent effect were calculated and recorded. The percentage of eggs hatching is calculated as the mean number of eggs hatched after 2 days per test divided by 50 (the total eggs input), and multiplied by 100. The percentage of adult fly emergence from larvae hatched (% larvae emerging as flies) is calculated as the mean number of adult flies emerging after 3 weeks per test divided by the mean number of larvae hatching on test day 2, and multiplied by 100. The percentage of larvae not developing is calculated as the mean number of larvae not developing per test divided by the mean number of larvae hatching on test day 2, and multiplied by 100. Thus, the data in Table 2 refers back to the data in Table 1, and the data in Table 4 refers back to the data in Table 3.

[3] = test system: Musca domestica (Hilmer Strain) larvae; assay: House fly bioassay: adult fly emergence from larvae exposed to feces of cyromazine-treated horses; type: in vivo; details: for Adult Fly Emergence from Larvae Hatched, Rep 1-4: 600 mg/day oral, after 3 weeks
Procedure: as §1, §2
The replicates containing hatched larvae were then returned to the environmental chamber in the presence of the test feces samples to determine the insecticidal effect of the cyromazine in the feces. Adult house fly emergence from larvae was determined after 3 weeks.
as §3

[4] = Tolerability of daily oral cyromazine in horses; type: in vivo, horse; details: 600 mg daily oral by top-dressing feed
Procedure: as §1, §2

[5] = test system: immature stages of flies; details: dairy calves, outdoor hutches, dose per body weight; cited from earlier work
[6] = test system: house fly; details: feed-through to fattening porkers, traditional pens with straw bedding; cited from earlier work
[7] = test system: house flies; details: added to the feed of mink; cited from earlier work
[8] = in vivo; cited from earlier work
[9] = horse Barney, <24 hours post-dosing group
[10] = horse Fancy, <24 hours post-dosing group
[11] = horse Phalete, <24 hours post-dosing group
[12] = horse Precious, <24 hours post-dosing group
[13] = same horse, 600 mg/day oral, 24 hours post-dosing group
[14] = same horse, 600 mg/day oral, 48 hours post-dosing group
[15] = same horse, 600 mg/day oral, 72 hours post-dosing group
[16] = same horse, 600 mg/day oral, 96 hours post-dosing group
[17] = same horse, 600 mg/day oral, 120 hours post-dosing group
[18] = 120 hour sample (4 reps), first study
[19] = feces of horse Barney, <24 hours post-dosing
[20] = feces of horse Fancy, <24 hours post-dosing
[21] = feces of horse Phalete, <24 hours post-dosing
[22] = feces of horse Precious, <24 hours post-dosing
[23] = horse feces 24 hours post-dosing
[24] = horse feces 48 hours post-dosing
[25] = horse feces 72 hours post-dosing
[26] = horse feces 96 hours post-dosing
[27] = horse feces 120 hours post-dosing

COC(C)(C)CCC[C@H](C)C/C=C/C(C)=C/C(=O)OC(C)C (racemic) [methoprene]
inhibition of development in manure ([1]; drinking water): Complete inhibition of development in manure | inhibition of development in manure ([1]; mineral blocks): Complete inhibition of development in manure

Nc1nc(N)nc(NC2CC2)n1 [cyromazine, 2-cyclopropylamino-4,6-diamino-s-triazine]
Larval Hatch/50 Eggs, Rep 1-4 ([2]; horse Barney, 600 mg/day oral, <24 hours post-dosing group): 25 and 33 and 43 and 32 | % Eggs Hatching [2, 9]: 66.5% | Larval Hatch/50 Eggs, Mean [2, 9]: 33.25 | Larval Hatch/50 Eggs, Σ [2, 9]: 133 | Larval Hatch/50 Eggs, Rep 1-4 ([2]; horse Fancy, 600 mg/day oral, <24 hours post-dosing group): 47 and 33 and 32 and 35 | % Eggs Hatching [2, 10]: 73.5% | Larval Hatch/50 Eggs, Mean [2, 10]: 36.75 | Larval Hatch/50 Eggs, Σ [2, 10]: 147 | % Eggs Hatching [2, 11]: 83.5% | Larval Hatch/50 Eggs, Mean [2, 11]: 41.75 | Larval Hatch/50 Eggs, Σ ([2]; horse Phalete, <24 hours post-dosing group, sum decreased by 7 (footnote)): 167* | Larval Hatch/50 Eggs, Rep 1-4 ([2]; horse Precious, 600 mg/day oral, <24 hours post-dosing group): 49 and 37 and 44 | % Eggs Hatching [2, 12]: 89.5% | Larval Hatch/50 Eggs, Mean [2, 12]: 44.75 | Larval Hatch/50 Eggs, Σ [2, 12]: 179 | % Eggs Hatching [2, 13]: 82.5% | Larval Hatch/50 Eggs, Mean [2, 13]: 41.25 | Larval Hatch/50 Eggs, Σ [2, 13]: 165 | Larval Hatch/50 Eggs, Rep 1-4 [2, 13]: 40 and 35 and 42 and 48 | % Eggs Hatching [2, 14]: 57.5% | Larval Hatch/50 Eggs, Mean [2, 14]: 28.75 | Larval Hatch/50 Eggs, Σ [2, 14]: 115 | Larval Hatch/50 Eggs, Rep 1-4 [2, 14]: 31 and 21 and 30 and 33 | % Eggs Hatching [2, 15]: 50.5% | Larval Hatch/50 Eggs, Mean [2, 15]: 25.25 | Larval Hatch/50 Eggs, Σ [2, 15]: 101 | Larval Hatch/50 Eggs, Rep 1-4 [2, 15]: 27 and 35 and 18 and 21 | % Eggs Hatching [2, 16]: 75.0% | Larval Hatch/50 Eggs, Mean [2, 16]: 37.50 | Larval Hatch/50 Eggs, Σ [2, 16]: 150 | Larval Hatch/50 Eggs, Rep 1-4 [2, 16]: 40 and 38 and 34 | % Eggs Hatching [2, 17]: 61.0% | Larval Hatch/50 Eggs, Mean [2, 17]: 30.50 | Larval Hatch/50 Eggs, Σ [2, 17]: 122 | Larval Hatch/50 Eggs, Rep 1-4 [2, 17]: 38 and 25 and 31 and 28 | flies emerged [3, 18]: 1 | flies emerged, percent [3, 18]: 0.2% | insecticidal amount in the feces ([3]; feces obtained at 24, 48, 72, 96 and 120 hours post-dosing): An insecticidal amount of cyromazine was present in the feces | Adult Fly Emergence from Larvae Hatched, Rep 1-4 [3, 19]: 0 | # Larvae not Developing [3, 19]: 133 | % Larvae Emerging as Flies [3, 19]: 0% | % Larvae not Developing [3, 19]: 100.0% | Adult Fly Emergence from Larvae Hatched, Σ [3, 19]: 0 | Adult Fly Emergence from Larvae Hatched, Rep 1-4 [3, 20]: 0 | # Larvae not Developing [3, 20]: 147 | % Larvae Emerging as Flies [3, 20]: 0% | % Larvae not Developing [3, 20]: 100.0% | Adult Fly Emergence from Larvae Hatched, Σ [3, 20]: 0 | Adult Fly Emergence from Larvae Hatched, Rep 1-4 [3, 21]: 0 | # Larvae not Developing [3, 21]: 167 | % Larvae Emerging as Flies [3, 21]: 0% | % Larvae not Developing [3, 21]: 100.0% | Adult Fly Emergence from Larvae Hatched, Σ [3, 21]: 0 | Adult Fly Emergence from Larvae Hatched, Rep 1-4 [3, 22]: 0 | # Larvae not Developing [3, 22]: 179 | % Larvae Emerging as Flies [3, 22]: 0% | % Larvae not Developing [3, 22]: 100.0% | Adult Fly Emergence from Larvae Hatched, Σ [3, 22]: 0 | adult fly emergence from hatched larvae ([3]; first study, same horse sampled at 5 time points): completely inhibited adult fly emergence | # Larvae not Developing [3, 23]: 165 | % Larvae Emerging as Flies [3, 23]: 0% | % Larvae not Developing [3, 23]: 100.0% | Adult Fly Emergence from Larvae Hatched, Σ [3, 23]: 0 | Adult Fly Emergence from Larvae Hatched, Rep 1-4 [3, 23]: 0 | # Larvae not Developing [3, 24]: 115 | % Larvae Emerging as Flies [3, 24]: 0% | % Larvae not Developing [3, 24]: 100.0% | Adult Fly Emergence from Larvae Hatched, Σ [3, 24]: 0 | Adult Fly Emergence from Larvae Hatched, Rep 1-4 [3, 24]: 0 | # Larvae not Developing [3, 25]: 101 | % Larvae Emerging as Flies [3, 25]: 0% | % Larvae not Developing [3, 25]: 100.0% | Adult Fly Emergence from Larvae Hatched, Σ [3, 25]: 0 | Adult Fly Emergence from Larvae Hatched, Rep 1-4 [3, 25]: 0 | # Larvae not Developing [3, 26]: 150 | % Larvae Emerging as Flies [3, 26]: 0% | % Larvae not Developing [3, 26]: 100.0% | Adult Fly Emergence from Larvae Hatched, Σ [3, 26]: 0 | Adult Fly Emergence from Larvae Hatched, Rep 1-4 [3, 26]: 0 | # Larvae not Developing [3, 27]: 121 | % Larvae Emerging as Flies [3, 27]: 0.8% | % Larvae not Developing [3, 27]: 99.8% | Adult Fly Emergence from Larvae Hatched, Σ [3, 27]: 1 | insecticidal activity of manure samples ([3]; horses orally administered cyromazine, feces without urine): high degree of insecticidal activity | inhibition of house fly development ([3]; second study, all 4 horses, <24 hours post-dosing): 100% | tolerability, side effects [4]: well tolerated at this dosage, and no side effects were seen | doses preventing development of immature stages of flies in straw bedding [5]: 0.5 to 1.0 mg/kg | adult fly development [6]: some adult flies did develop | prevention of breeding of house flies [7]: ineffective | share of all cyromazine excreted found in urine [8]: 95%
